According to patent US12338251B2, “Substituted macrocycles useful as kinase inhibitors” (TELIGENE LTD, priority 2019, dated 2025):
Converted amounts (≈) assume the structure as drawn.

Legend:
[1] = PK study (bioavailability); assay type: in vivo; conditions: rats; 1 mg/kg IV and 10 mg/kg orally; parent compound plus major metabolites
Method: A representative protocol for the PK (pharmacokinetic) assay was as followed: Compounds were given either IV or orally to the same animals. The dose for each compound was 1 mg/kg (volume 5 ml/kg) IV and 10 mg/kg (volume 10 ml/kg) orally. The formulation for IV was in 10% SOLUTOL® HS 15+90% Phosphate-Buffered Saline at […]. A 100% (0.5% Tween 80 in 0.5% methylcellulose (MC) in water) at […] suspension was used for the oral formulation. Sample collection: for the IV route, plasma samples were collected at the time points of 0.083, 0.25, 0.5, 1, 2, 4, 8 and 24 hr. For the oral route, plasma samples were collected at the time points of 0.25, 0.5, 1, 2, 4, 8 and 24 hr. Total bioavailability is calculated by adding parent compound and major metabolites. Analysis: LC-MS/MS was used to calculate PK parameters: t1/2, tmax, Cmax, Vss and AUC, etc.
The following Table E lists selected compounds and their bioavailability (F).
Compound 3 and 4 have much improved bioavailability (F=100%).

[2] = Stability test for one month, purity by HPLC; assay type: physicochemical; conditions: for Day 30 at 25° C. (purity): HPLC purity after 30 days at 25° C.; for Day 0 (purity): HPLC purity, baseline of stability test
Method: Stability test: The compounds were tested for their stability at 25° C. for one month, using HPLC to measure the purity. […] Compound 2 is not stable at −30° C. […] (Table F).

[3] = Stability test for one month, purity by HPLC; assay type: physicochemical; conditions: HPLC purity after 30 days at 0° C.
CYP 3A4 = CYP 3A4 (Homo sapiens (Human), UniProt P08684); assay: P450 3A4 assay in human liver microsomes (CYP inhibition); assay type: in vitro ADME; conditions: for IC50: testosterone probe substrate
Sequence of CYP 3A4 (P08684 whole entry): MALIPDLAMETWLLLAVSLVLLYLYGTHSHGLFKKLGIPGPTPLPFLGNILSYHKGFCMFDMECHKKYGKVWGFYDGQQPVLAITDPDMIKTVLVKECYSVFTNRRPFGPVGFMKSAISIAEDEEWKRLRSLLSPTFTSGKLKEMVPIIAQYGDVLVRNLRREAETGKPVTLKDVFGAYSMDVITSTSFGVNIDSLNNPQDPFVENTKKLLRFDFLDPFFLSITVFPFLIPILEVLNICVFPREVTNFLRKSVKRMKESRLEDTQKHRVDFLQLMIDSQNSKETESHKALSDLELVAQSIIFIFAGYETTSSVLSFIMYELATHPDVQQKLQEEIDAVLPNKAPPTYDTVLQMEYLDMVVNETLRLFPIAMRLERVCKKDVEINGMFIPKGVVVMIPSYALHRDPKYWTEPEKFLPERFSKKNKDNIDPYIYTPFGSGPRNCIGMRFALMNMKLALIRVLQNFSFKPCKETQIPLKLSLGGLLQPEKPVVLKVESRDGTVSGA
Method: The final concentrations of DMSO and acetonitrile were equal to or less than 0.1%.
The column temperature was maintained at ambient temperature (25° C.). […] The flow rate was maintained at 0.6 mL/min.

[4] = Solubility measurement (HPLC); assay type: physicochemical; conditions: for solubility at 30 min: pH 7.0 buffer solution (20 mM), aqueous buffer, thermodynamic from solid
Method: Preparation of reference standard solution: 2 mg of Compound was added individually to 100 mL volumetric flask each. The compound was diluted with acetonitrile to 100 mL.
Preparation of sample solution: 2 mg of Compound was added individually to 2 mL eppendorf tube (EP), followed by addition of 1 mL of pH 7.0 or 10.0 buffer solution (20 mM). The solution was shaken for 2 minutes and left for 30 minutes at 25° C. After standing for 30 minutes, precipitate was formed in the bottom of the EP. The solutions were filtered through a 0.2 um membrane filter, and then diluted by 50 times with water.
The standard and sample solutions were injected into the HPLC on a Shim-Pack CLC-ODS C18 column (150 mm×6.0 mm, 5 μm) with the same volume. The mobile phase consisted of acetonitrile with 2% trichloromethane—20 mM KH2PO4 buffer (pH=7.0) at a flow rate of 1 mL/minute (40:60). The detection wavelength is at 264 nm. Calculation: solubility of sample=the concentration of standard×Area of sample×50/Area of standard.

[5] = tested on: BaF3-SLC34A2-ROS1 cell line xenograft; assay: In vivo xenograft assay, subcutaneous BaF3-SLC34A2-ROS1 in nude mice; parameters: species or system Balb/c nude mice; conditions: 5 mg/kg oral gavage once daily; for Tumor weight at Day 20: nude mice, control 2.118 g
Text: A representative protocol for the in vivo experiment is as followed to establish the subcutaneous BaF3—SLC34A2-ROS1 cell line xenograft model in nude mice and to evaluate the in vivo therapeutic efficacy of the compounds:
Animals: Male Balb/c nude mice (6˜8 weeks old) were obtained from SLAC Laboratory Animal, Shanghai, China. Animals were maintained under SPF conditions in sterile filter top cages and housed on HEPA-filtered ventilated racks. Animals received sterile rodent chow and water ad libitum.
Cell line: BaF3—SLC34A2-ROS1, S.C.
Xenograft Models in Athymic Mice: Cells for implantation into athymic mice were harvested and pelleted by centrifugation at 1200 r/min for 5 min. Cells were washed once and resuspended in sterile PBS buffer with 5×10^6 in 200 μl. Then cells were implanted s.c. into the right scapular region of each mouse and allowed to grow to 200-300 mm^3 before the administration of compound.
Preparation of the Dose Formulation: each compound was suspended in 0.5% sodium carboxymethyl cellulose (CMC-Na). […]
Observations: After inoculation, the animals are checked daily for morbidity and mortality. At the time of routine monitoring, the animals are checked for any effects of tumor growth and treatments on normal behavior such as mobility, body weight gain/loss (body weights are measured twice weekly or every other day), eye/hair matting and any other abnormal effect. Death and observed clinical signs are recorded on the basis of the numbers of animals within each subset.
Tumor Size Measurements: Tumor volume was determined by measurement with electronic vernier calipers every 3 days and tumor volume was calculated as the product of its length×width2×0.5. […]
Percentage (%) inhibition values were measured for drug-treated mice compared with vehicle-treated mice and are calculated as follows: Tumor growth inhibition (TGI, %)=100−[MTV treated/MTV control]×100, where MTV is the median tumor volume. Significant differences between the treated versus the control groups (p<0.05) were determined using t test. […]

Ba/F3 EML4-ALK-L1196M = assay: Cell proliferation assay (CTG), Ba/F3 EML4-ALK-L1196M; assay type: cell-based; conditions: 72 hours
Method: (§1) A Representative Number of Compounds were Assayed Against BAF3 Cell Lines Using the Cell Proliferation Assays:
(§2) Cell Culture and Inoculation:
(§3) 1. Cells in logarithmic growth phase were harvested and counted by platelet counter. Trypan blue exclusion method was used to detect the cell viability to ensure that the cell viability was above 90%.
(§4) 2. Adjust the cell concentration; 90 μL cell suspension was added to 96 well plates respectively.
(§5) 3. Cells in 96-well plate were cultured overnight at 37° C., 5% CO2 and 95% of humidity.
(§6) Drug Dilution and Dosing:
(§7) 1. Prepare 10-fold drug solution with the highest concentration of 100 μM, 9 concentrations and 3.16-fold dilution. Add 10 μL of drug solution to each well of 96-well plate inoculated with cells, and set up 3 duplicate wells for each drug concentration.
(§8) 2. Cells in 96-well plates with drug added were cultured for 72 hours at 37° C., 5% CO2 and 95% of humidity, and then […]-GLO® (CTG) analysis was performed.
(§9) 1. Melt CTG reagent and equilibrate cell plates to room temperature for 30 minutes.
2. […]
(§10) 5. Read the cold light value.
(§11) The data were analyzed by GraphPad Prism 5.0 software, and the dose-effect curve was obtained by fitting the data by nonlinear S-curve regression, and IC50 value was calculated accordingly.
(§12) Cell survival rate (%)=(Lumdrug to be tested−Lumculture solution control)/(Lumcell control−Lumculture solution control)×100%. Lum is luminescence. […]

Ba/F3 EML4-ALK-WT = assay: Cell proliferation assay (CTG), Ba/F3 EML4-ALK-WT; assay type: cell-based; conditions: Mus musculus, BaF3, 72 hours
Method: as §1, §2, §3, §4, §5, §6, §7, §8, §9
2. […]
as §10, §11, §12

[6] = One-month toxicity studies in rats; assay type: in vivo; conditions: 8 mg/kg/day females and 16 mg/kg/day males

For `C[C@H]1Oc2cc(cnc2NC(=O)CN)-c2c(nn(C)c2C#N)CN(C)C(=O)c2ccc(F)cc21` [Compound 2, reference compound], the “Total F (%) (oral bioavailability)” value [1] was 49%, the “Stability at 25° C. (in words)” value ([2]; 25° C., one month) was “decomposed significantly” and the “Day 30 at 25° C. (purity)” value [2] was 86.14%. The “Day 0 (purity)” value [2] was 97.28%, the “Major impurity A at Day 0” value ([2]; HPLC, Day 0) was 1.13% and the “Major impurity B at Day 0” value ([2]; HPLC, Day 0) was 1.39%. For the same molecule, the “Major impurity A at Day 30” value ([2]; HPLC, Day 30 at 25° C.) was 3.98%, the “Major impurity B at Day 30” value ([2]; HPLC, Day 30 at 25° C.) was 8.34% and the “Stability at −30° C. (in words)” value ([2]; −30° C.) was “not stable”. The “Day 30 at 0° C. (purity)” value [3] was 92.58%, the IC50 (CYP 3A4) was 10 µM and the “Solubility at pH 7.0” value ([4]; pH 7.0 buffer (20 mM), 25° C.) was 0.091 mg/mL.
With `CC(=O)NCC(=O)Nc1ncc2cc1O[C@H](C)c1cc(F)ccc1C(=O)N(C)Cc1nn(C)c(C#N)c1-2` [Compound 3] the “Stability at 0° C. or 25° C. (in words)” value ([2]; one month) was “no significant changes”, the “Day 30 at 25° C. (purity)” value [2] was 99.16% and the “Day 0 (purity)” value [2] was 99.24%. The “Day 30 at 0° C. (purity)” value [3] was 99.18%, the “CYP 3A4 inhibition (in words)” value (CYP 3A4; compared with Lorlatinib and Compound 2) was “much weaker inhibition” and the IC50 (CYP 3A4) was 279 µM. The “Tumor weight at Day 20” value [5] was 0.327 g, the “Tumor growth inhibition at day 20 (in words)” value ([5]; compared with Lorlatinib) was “significant better tumor growth inhibition” and the IC50 (Ba/F3 EML4-ALK-L1196M) was 0.051 µM. The “Solubility at pH=7.0 (in words)” value ([4]; compared with compound 2 and Lorlatinib) was “much higher solubility”, the solubility at 30 min ([4]; pH 7.0 buffer (20 mM), 25° C.) was 772 µg/mL (≈ 1530 µM) and the IC50 (Ba/F3 EML4-ALK-WT) was 0.0028 µM.
In the case of `COC(=O)NCC(=O)Nc1ncc2cc1O[C@H](C)c1cc(F)ccc1C(=O)N(C)Cc1nn(C)c(C#N)c1-2` [Compound 4], the “Stability at 0° C. or 25° C. (in words)” value ([2]; one month) is reported as “no significant changes”, the “Day 30 at 25° C. (purity)” value [2] is reported as 97.25% and the “Day 0 (purity)” value [2] is reported as 97.23%. For the same molecule, the “Day 30 at 0° C. (purity)” value [3] was 97.13%.
In the case of `CCOC(=O)NCC(=O)Nc1ncc2cc1O[C@H](C)c1cc(F)ccc1C(=O)N(C)Cc1nn(C)c(C#N)c1-2` [Compound 5], the “Stability at 0° C. or 25° C. (in words)” value ([2]; one month) is reported as “no significant changes”, the “Day 30 at 25° C. (purity)” value [2] is reported as 99.05% and the “Day 0 (purity)” value [2] is reported as 99.05%. The “Day 30 at 0° C. (purity)” value [3] was 99.01%.
With `C[C@H]1Oc2cc(cnc2N)-c2c(nn(C)c2C#N)CN(C)C(=O)c2ccc(F)cc21` [Lorlatinib, reference compound] the “Tumor weight at Day 20” value [5] was 0.531 g, the Prothrombin time [6] was “shorten time” and the “#LYMPH and Red blood cell in blood” value ([6]; end of administration and recovery periods) was “decreased”. For the same molecule, the solubility at 30 min ([4]; pH 7.0 buffer (20 mM), 25° C.) was 29 µg/mL (≈ 71.4 µM).
